In the supplement of paper PMC10307832:

Legend:
Assay in all cases: relative viability (nuclei count vs DMSO), 5 days (fraction); higher = more cells survive
AZD8055 + Navitoclax = compound: COc1ccc(-c2ccc3c(N4CCOC[C@@H]4C)nc(N4CCOC[C@@H]4C)nc3n2)cc1CO [AZD8055] + CC1(C)CCC(c2ccc(Cl)cc2)=C(CN2CCN(c3ccc(C(=O)NS(=O)(=O)c4ccc(N[C@H](CCN5CCOCC5)CSc5ccccc5)c(S(=O)(=O)C(F)(F)F)c4)cc3)CC2)C1 [Navitoclax] (partner 0.5 µM)
Outline: (§1)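 Relative viability divides the nuclei count in treated wells by that in vehicle wells. Lung cancer cell lines were seeded in 1536-well plates, dosed by pin tool the next day, and fixed and stained after 5 days in one step with final 0.05% Triton X-100, 1% formaldehyde and 1 ug/ml Hoechst. Dosing was a single drug or a fixed anchor-drug dose plus five library-drug doses (not always all listed) in √10 steps, and values are medians of duplicate plates imaged at 4×.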

AZD8055 + Tozasertib = compound: COc1ccc(-c2ccc3c(N4CCOC[C@@H]4C)nc(N4CCOC[C@@H]4C)nc3n2)cc1CO [AZD8055] + Cc1cc(Nc2cc(N3CCN(C)CC3)nc(Sc3ccc(NC(=O)C4CC4)cc3)n2)n[nH]1 [Tozasertib] (partner 0.1 µM)
Outline: as §1

AZD8055 + Vorinostat = compound: COc1ccc(-c2ccc3c(N4CCOC[C@@H]4C)nc(N4CCOC[C@@H]4C)nc3n2)cc1CO [AZD8055] + O=C(CCCCCCC(=O)Nc1ccccc1)NO [Vorinostat] (partner 1 µM)
Outline: as §1

AZD8055 + Crizotinib = compound: COc1ccc(-c2ccc3c(N4CCOC[C@@H]4C)nc(N4CCOC[C@@H]4C)nc3n2)cc1CO [AZD8055] + C[C@@H](Oc1cc(-c2cnn(C3CCNCC3)c2)cnc1N)c1c(Cl)ccc(F)c1Cl [Crizotinib] (partner 1 µM)
Outline: as §1

Cell Line | relative viability (AZD8055 + Navitoclax; first compound 0.01 µM) | relative viability (AZD8055 + Navitoclax; first compound 0.03162 µM) | relative viability (AZD8055 + Navitoclax; first compound 0.1 µM) | relative viability (AZD8055 + Navitoclax; first compound 0.3162 µM) | relative viability (AZD8055 + Navitoclax; first compound 1 µM) | relative viability (AZD8055 + Tozasertib; first compound 0.01 µM) | relative viability (AZD8055 + Tozasertib; first compound 0.03162 µM) | relative viability (AZD8055 + Tozasertib; first compound 0.1 µM) | relative viability (AZD8055 + Tozasertib; first compound 0.3162 µM) | relative viability (AZD8055 + Tozasertib; first compound 1 µM) | relative viability (AZD8055 + Vorinostat; first compound 0.01 µM) | relative viability (AZD8055 + Vorinostat; first compound 0.03162 µM) | relative viability (AZD8055 + Vorinostat; first compound 0.1 µM) | relative viability (AZD8055 + Vorinostat; first compound 0.3162 µM) | relative viability (AZD8055 + Vorinostat; first compound 1 µM) | relative viability (AZD8055 + Crizotinib; first compound 0.01 µM) | relative viability (AZD8055 + Crizotinib; first compound 0.03162 µM) | relative viability (AZD8055 + Crizotinib; first compound 0.1 µM) | relative viability (AZD8055 + Crizotinib; first compound 0.3162 µM) | relative viability (AZD8055 + Crizotinib; first compound 1 µM)
NCI-H322M | 1.17 | 1.09 | 0.845 | 0.488 | 0.546 | 0.458 | 0.45 | 0.408 | 0.347 | 0.326 | 0.85 | 0.839 | 0.8 | 0.511 | 0.538 | 0.868 | 1.03 | 0.825 | 0.796 | 0.478
NCI-H1666 | 0.878 | 0.819 | 0.731 | 0.561 | 0.417 | 0.623 | 0.862 | 0.589 | 0.523 | 0.51 | 0.933 | 1.07 | 0.892 | 0.856 | 0.736 | 0.936 | 1.01 | 0.812 | 0.648 | 0.465
NCI-H2087 | 0.911 | 0.951 | 0.703 | 0.421 | 0.309 | 0.276 | 0.242 | 0.2 | 0.189 | 0.162 | 0.679 | 1.03 | 0.734 | 0.152 | 0.223 | 1.21 | 0.972 | 0.801 | 0.415 | 0.485
LU99A | 0.69 | 0.517 | 0.232 | 0.164 | 0.191 | 0.289 | 0.268 | 0.2 | 0.198 | 0.21 | 0.385 | 0.259 | 0.225 | 0.186 | 0.153 | 0.517 | 0.329 | 0.234 | 0.233 | 0.232
HCC-366 | 1.15 | 0.911 | 0.694 | 0.418 | 0.132 | 0.14 | 0.0951 | 0.0932 | 0.0432 | 0.0587 | 0.372 | 0.205 | 0.182 | 0.0725 | 0.0602 | 0.416 | 0.484 | 0.223 | 0.107 | 0.0921
EKVX | 1.08 | 1.04 | 0.797 | 0.512 | 0.413 | 0.451 | 0.418 | 0.345 | 0.226 | 0.202 | 0.68 | 0.729 | 0.519 | 0.422 | 0.366 | 1.21 | 0.943 | 0.81 | 0.524 | 0.393
NCI-H1755 | 0.953 | 0.71 | 0.687 | 0.296 | 0.307 | 0.551 | 0.555 | 0.449 | 0.429 | 0.437 | 0.64 | 0.613 | 0.57 | 0.423 | 0.366 | 0.824 | 0.762 | 0.652 | 0.397 | 0.393
NCI-H647 | 1.35 | 1.03 | 0.637 | 0.391 | 0.219 | 0.319 | 0.27 | 0.28 | 0.143 | 0.088 | 0.81 | 0.416 | 0.308 | 0.152 | 0.114 | 1 | 0.619 | 0.445 | 0.303 | 0.177
LC-2-ad | 0.349 | 0.309 | 0.163 | 0.185 | 0.154 | 0.491 | 0.564 | 0.366 | 0.339 | 0.377 | 0.773 | 0.688 | 0.705 | 0.497 | 0.457 | 0.429 | 0.502 | 0.473 | 0.384 | 0.312
HCC-827 | 1.03 | 0.991 | 1.03 | 0.92 | 0.456 | 0.449 | 0.448 | 0.447 | 0.235 | 0.295 | 0.849 | 0.882 | 0.89 | 0.521 | 0.397 | 1 | 0.965 | 0.991 | 0.479 | 0.393
HCC-78 | 0.817 | 0.574 | 0.339 | 0.238 | 0.198 | 0.475 | 0.404 | 0.341 | 0.299 | 0.232 | 0.428 | 0.394 | 0.38 | 0.398 | 0.321 | 0.303 | 0.307 | 0.233 | 0.213 | 0.19
NCI-H2085 | 1.11 | 0.945 | 0.672 | 0.417 | 0.33 | 0.775 | 0.759 | 0.703 | 0.388 | 0.338 | 0.645 | 0.554 | 0.49 | 0.44 | 0.363 | 0.927 | 0.805 | 0.639 | 0.359 | 0.315
PC-14 | 1.15 | 1.16 | 1.02 | 0.405 | 0.351 | 0.834 | 0.762 | 0.535 | 0.109 | 0.0948 | 0.78 | 0.606 | 0.586 | 0.201 | 0.125 | 1.06 | 1.02 | 0.771 | 0.448 | 0.21
A-427 | 0.987 | 0.837 | 0.598 | 0.376 | 0.315 | 0.204 | 0.193 | 0.22 | 0.163 | 0.208 | 0.928 | 0.868 | 0.849 | 0.6 | 0.535 | 1.03 | 0.849 | 0.786 | 0.438 | 0.403
H3255 | 0.54 | 0.443 | 0.324 | 0.176 | 0.172 | 0.574 | 0.716 | 0.535 | 0.604 | 0.359 | 0.967 | 0.746 | 0.747 | 0.513 | 0.357 | 1.3 | 0.818 | 0.718 | 0.407 | 0.301
HCC-44 | 0.985 | 0.891 | 0.617 | 0.41 | 0.448 | 1.03 | 0.914 | 0.626 | 0.543 | 0.613 | 1.12 | 1.22 | 1.07 | 0.735 | 0.803 | 0.879 | 0.825 | 0.662 | 0.364 | 0.315
